{"source": "patent US20240009168A1", "about": "(Cognition Therapeutics, Inc., priority 2020, published 2024)", "key": {"RPE cell cultures [1]": {"tested_on": "RPE cell cultures", "assay": "Autophagy assays: POS trafficking, colocalization of POS with LC3B", "type": "cell-based", "method": "FIGS. 2A and 2B depict photoreceptor outer segment trafficking after treatment with Abeta oligomers in the presence or absence of sigma 2 receptor modulators (FIG. 2A=Compound A and Compound C; FIG. 2B=Compound B).\nFIGS. 3A and 3B depict photoreceptor outer segment trafficking after treatment with an oxidative stressor in the presence or absence of sigma 2 receptor modulators (FIG. 3A=Compound A and Compound C; FIG. 3B=Compound B).\nAutophagy Assays: Autophagy assays were performed in accordance with Klionsky et al., “Guidelines for the Use and Interpretation of Assays for Monitoring Autophagy,” (4th edition) Autophagy 2021; 17:1-382, which is hereby incorporated by reference in its entirety. RPE cultures were treated with human oligomeric Aβ in either the presence or absence of compounds of the invention. POS trafficking was measured over time after the addition of POS to RPE cell cultures. Stressors included addition of Aβ oligomers or H2O2 for 12 to 48 hours. […] This process was disrupted by addition of stressors such as Aβ oligomers (FIGS. 2A and 2B) or oxidative stress (FIGS. 3A and 3B)."}, "RPE cell cultures [2]": {"tested_on": "RPE cell cultures", "assay": "Quantification of an autophagy related protein after oxidative stressor", "type": "cell-based", "details": "after oxidative stressor (FIG. 4)", "excerpt": "FIG. 4 depicts quantification of an autophagy-related protein after oxidative stress by an oxidative stressor in the presence or absence of sigma-2 receptor modulators.\nOxidative stressors are associated with pathology in AMD with changes seen in autophagy associated proteins. Application of an oxidative stressor caused increased expression of an autophagy related protein acutely (FIG. 4)."}, "retinal ganglion cells [3]": {"tested_on": "retinal ganglion cells", "assay": "In vivo model of glaucoma: pattern electroretinogram (PERG)", "details": "p<0.05 (FIGS. 9A and 9B)", "excerpt": "FIGS. 9A and 9B depict quantification of electrical activity in retinal ganglion cells in an in vivo model of glaucoma in the presence or absence of sigma-2 receptor modulator.\n(§1) In vivo models of glaucoma (Shah, M., et al., “Translational Preclinical Pharmacologic Disease Models for Opthalmic Drug Development,” Development. Pharm. Res. 36(4): 58 (2019); which is hereby incorporated by reference in its entirety) were used to test the utility of sigma-2 receptor modulators.\nGlaucoma can cause perturbations in the electrical activity of the retina. To measure the electrical activity, a pattern electroretinogram (PERG) measure electrical activity of the retina in response to a test stimulus, such as a reversing checkerboard. PERG is a noninvasive, direct, and objective method to assess retinal ganglion cell function. An in vivo model of glaucoma causes a functional deficit in retinal ganglion cells (injured vs. naïve), resembling what is seen in patients with glaucoma and other retinal diseases."}, "sigma-2 receptors": {"molecular_target": "T1, sigma-2 receptors (Mus musculus, UniProt Q8VD00)", "T1 sequence (Q8VD00 1-176)": "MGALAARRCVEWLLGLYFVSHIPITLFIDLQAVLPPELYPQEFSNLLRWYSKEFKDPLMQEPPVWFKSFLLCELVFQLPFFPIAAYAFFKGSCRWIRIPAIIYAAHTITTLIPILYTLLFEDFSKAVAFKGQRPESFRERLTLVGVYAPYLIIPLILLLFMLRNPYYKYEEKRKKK", "assay": "Drug concentration in plasma, brain and retina", "type": "in vivo", "method": "FIG. 6 depicts quantification of the concentration of the sigma-2 receptor modulator Compound A in mouse plasma, brain, and retina.\nFIG. 7 depicts quantification of the concentration of the sigma-2 receptor modulator, Compound B, in mouse plasma, brain and retina.\nFollowing a single oral administration of [14C]-Compound A to a rat, autoradiography was performed to determine tissue distribution. […] Receptor occupancy exceeding 80% confers efficacy in vivo. Drug concentration in the brain (cerebellum), retina, and plasma were also measured. […] Similarly, following a single orally administered dose, Compound B was found in concentrations that exceeded 80% receptor occupancy at sigma-2 receptors in the retina and plasma and approximately 50% occupancy in the brain (FIG. 7)."}, "retinal ganglion cells [4]": {"tested_on": "retinal ganglion cells", "assay": "In vivo model of glaucoma: retinal ganglion cell counts", "details": "p<0.05 (FIG. 8)", "excerpt": "FIG. 8 depicts quantification of retinal ganglion cell density in an in vivo model of glaucoma in the presence or absence of sigma-2 receptor modulator.\nas §1\nTo test whether sigma-2 receptor modulators can rescue cell death, in vivo models were used to cause cell death of retinal ganglion cells, resembling what is seen in patients with glaucoma and other retinal diseases."}, "[5]": {"details": "oxidative stress, H2O2 (FIGS. 3A and 3B)"}, "[6]": {"details": "stressor Aβ oligomers (FIGS. 2A and 2B)"}}, "data": [{"smiles": "CC(C)=C[C@@H](CC(C)(C)c1ccc(C(F)(F)F)cc1)N1CCC(C2CCOCC2)CC1", "note": "[Compound C]", "values": [{"measurement": "POS trafficking into autophagosomes (colocalization of POS with LC3B)", "setting": "RPE cell cultures [1]; [5]", "result": "restored normal trafficking into autophagosomes after stress"}, {"measurement": "POS trafficking into autophagosomes (colocalization of POS with LC3B)", "setting": "RPE cell cultures [1]; [6]", "result": "restored normal trafficking into autophagosomes after stress"}, {"measurement": "expression of an autophagy related protein", "setting": "RPE cell cultures [2]", "result": "prevented the increase in this autophagy related protein"}]}, {"smiles": "CC(C)(C)Oc1cc(CCC(C)(C)N2Cc3ccc(S(C)(=O)=O)cc3C2)ccc1O", "note": "[Compound A]", "values": [{"measurement": "retinal ganglion cell function (PERG electrical activity)", "setting": "retinal ganglion cells [3]", "result": "preserves retinal ganglion cell function"}, {"measurement": "POS trafficking into autophagosomes (colocalization of POS with LC3B)", "setting": "RPE cell cultures [1]; [5]", "result": "restored normal trafficking into autophagosomes after stress"}, {"measurement": "POS trafficking into autophagosomes (colocalization of POS with LC3B)", "setting": "RPE cell cultures [1]; [6]", "result": "restored normal trafficking into autophagosomes after stress"}, {"measurement": "expression of an autophagy related protein", "setting": "RPE cell cultures [2]", "result": "prevented the increase in this autophagy related protein"}, {"measurement": "concentration in the retina relative to brain (cerebellum) and plasma", "setting": "sigma-2 receptors; mouse (FIG. 6)", "result": "higher than the concentration in the brain or plasma"}]}, {"smiles": "CC1(O)CCN(CCC(C)(C)c2ccc(C(F)(F)F)cc2)CC1", "note": "[Compound B]", "values": [{"measurement": "retinal ganglion cell counts", "setting": "retinal ganglion cells [4]", "result": "significantly preserved retinal ganglion cells counts"}, {"measurement": "occupancy at sigma-2 receptors in the brain", "setting": "sigma-2 receptors; mouse (FIG. 7), single orally administered dose", "result": "approximately 50%"}]}]}
